Test results reported in patent US20230017045A1, “PYRIDINE AND PYRIMIDINE CARBOXYLATE HERBICIDES AND METHODS OF USE THEREOF” (Dow AgroSciences LLC, priority 2017, published 2023).
Where two headings read alike, the source gives them in different places.

System: test plant species
Test: Post-emergent herbicidal activity test (greenhouse, foliar spray, visual growth reduction)
Format: in vivo
Details: post-emergence, 336 h, 140 g ai/ha, 14 days after application
Outline: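 Greenhouse plants at first–second true leaf stage sprayed overhead at 187 L/ha with compound in acetone/water/isopropanol/DMSO/crop oil/X-77 carrier; controls received solvent blank. Injury rated visually after 14 d on a 0–100% scale versus untreated and control plants, converted to growth reduction.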

[1] = ALOMY: blackgrass (Alopecurus myosuroides), read-out: Visual Growth Reduction (%) 14 Days After Application, ALOMY
[2] = AMARE: redroot pigweed (Amaranthus retroflexus), read-out: Visual Growth Reduction (%) 14 Days After Application, AMARE
[3] = AVEFA: wild oat (Avena fatua), read-out: Visual Growth Reduction (%) 14 Days After Application, AVEFA
[4] = CHEAL: lambsquarters (Chenopodium album), read-out: Visual Growth Reduction (%) 14 Days After Application, CHEAL
[5] = CIRAR: canada thistle (Cirsium arvense), read-out: Visual Growth Reduction (%) 14 Days After Application, CIRAR
[6] = CYPES: yellow nutsedge (Cyperus esculentus), read-out: Visual Growth Reduction (%) 14 Days After Application, CYPES
[7] = DIGSA: crabgrass (Digitaria sanguinalis), read-out: Visual Growth Reduction (%) 14 Days After Application, DIGSA
[8] = ECHCG: barnyardgrass (Echinochloa crus-galli), read-out: Visual Growth Reduction (%) 14 Days After Application, ECHCG
[9] = IPOHE: ivy-leaf morning glory (Ipomoea hederacea), read-out: Visual Growth Reduction (%) 14 Days After Application, IPOHE
[10] = KCHSC: kochia (Bassia scoparia), read-out: Visual Growth Reduction (%) 14 Days After Application, KCHSC
[11] = ORYSA: rice (Oryza sativa), read-out: Visual Growth Reduction (%) 14 Days After Application, ORYSA
[12] = SETFA: giant foxtail (Setaria faberi), read-out: Visual Growth Reduction (%) 14 Days After Application, SETFA
[13] = SORVU: grain sorghum (Sorghum vulgare), read-out: Visual Growth Reduction (%) 14 Days After Application, SORVU
[14] = STEME: common chickweed (Stellaria media), read-out: Visual Growth Reduction (%) 14 Days After Application, STEME
[15] = TRZAS: wheat, spring (Triticum aestivum), read-out: Visual Growth Reduction (%) 14 Days After Application, TRZAS

Row | SMILES | pest or weed control at 140 g/ha [1] [%] | pest or weed control at 140 g/ha [2] [%] | pest or weed control at 140 g/ha [3] [%] | pest or weed control at 140 g/ha [4] [%] | pest or weed control at 140 g/ha [5] [%] | pest or weed control at 140 g/ha [6] [%] | pest or weed control at 140 g/ha [7] [%] | pest or weed control at 140 g/ha [8] [%] | pest or weed control at 140 g/ha [9] [%] | pest or weed control at 140 g/ha [10] [%] | pest or weed control at 140 g/ha [11] [%] | pest or weed control at 140 g/ha [12] [%] | pest or weed control at 140 g/ha [13] [%] | pest or weed control at 140 g/ha [14] [%] | pest or weed control at 140 g/ha [15] [%]
1 | COC(=O)c1nc(-c2ccc(OC(F)F)cc2)c(F)cc1Cl [F165, Methyl 3-chloro-6-(4-(difluoromethoxy)phenyl)-5-fluoropicolinate] | 0 to 29 | 85 to 94 | 0 to 29 | 45 to 59 | 60 to 74 | 0 to 29 | 75 to 84 | 60 to 74 | 75 to 84 | 30 to 44 | 0 to 29 | 75 to 84 | 85 to 94 | 0 to 29 | 0 to 29
2 | COC(=O)c1nc(-c2ccc(C(F)(F)F)cc2OC)c(F)cc1Cl [F166, Methyl 3-chloro-5-fluoro-6-(2-methoxy-4-(trifluoromethyl)phenyl)picolinate] | 0 to 29 | 95 to 100 | 75 to 84 | 85 to 94 | 85 to 94 | 0 to 29 | 75 to 84 | 95 to 100 | 95 to 100 | 95 to 100 | 0 to 29 | 85 to 94 | 85 to 94 | 30 to 44 | 75 to 84
3 | COC(=O)c1nc(-c2ccc(C(F)(F)F)nc2F)ccc1Cl [F167, Methyl 5-chloro-2′-fluoro-6′-(trifluoromethyl)-[2,3′-bipyridine]-6-carboxylate] | 0 to 29 | 60 to 74 | 0 to 29 | 75 to 84 | 0 to 29 | 0 to 29 |  | 0 to 29 | 60 to 74 | 30 to 44 | 0 to 29 | 60 to 74 | 75 to 84 | 0 to 29 | 0 to 29
4 | COC(=O)c1nc(-c2ccc(C#N)cc2)c(F)cc1Cl [F168, Methyl 3-chloro-6-(4-cyanophenyl)-5-fluoropicolinate] | 0 to 29 | 30 to 44 | 0 to 29 | 45 to 59 | 0 to 29 | 0 to 29 | 60 to 74 | 30 to 44 | 60 to 74 | 0 to 29 | 0 to 29 | 30 to 44 | 30 to 44 | 0 to 29 | 0 to 29
5 | COC(=O)c1nc(-c2ccc(S(C)(=O)=O)cc2)c(F)cc1Cl [F169, Methyl 3-chloro-5-fluoro-6-(4-(methylsulfonyl)phenyl)picolinate] | 0 to 29 | 30 to 44 | 0 to 29 | 30 to 44 | 0 to 29 | 0 to 29 | 30 to 44 | 45 to 59 | 60 to 74 | 30 to 44 | 0 to 29 | 60 to 74 | 60 to 74 | 0 to 29 | 0 to 29
6 | COC(=O)c1nc(-c2ccc(C(F)(F)F)cc2C)c(F)cc1Cl [F170, Methyl 3-chloro-5-fluoro-6-(2-methyl-4-(trifluoromethyl)phenyl)picolinate] | 45 to 59 | 95 to 100 | 30 to 44 | 95 to 100 | 85 to 94 | 60 to 74 | 85 to 94 | 60 to 74 | 95 to 100 | 60 to 74 | 0 to 29 | 85 to 94 | 85 to 94 | 0 to 29 | 60 to 74
7 | CCN(CC)c1c(Cl)ccc(-c2ccc(Cl)c(C(=O)OC)n2)c1F [F171] | 0 to 29 | 0 to 29 | 0 to 29 | 60 to 74 | 0 to 29 | 0 to 29 | 0 to 29 | 0 to 29 | 0 to 29 | 30 to 44 | 0 to 29 | 0 to 29 | 0 to 29 | 0 to 29 | 0 to 29
8 | COC(=O)c1nc(-c2cc3c(cc2F)OC(F)(F)O3)ccc1Cl [F172, Methyl 3-chloro-6-(2,2,6-trifluorobenzo[d] [1,3]dioxol-5-yl)picolinate] | 30 to 44 | 95 to 100 | 30 to 44 | 85 to 94 | 60 to 74 | 75 to 84 | 85 to 94 | 75 to 84 | 95 to 100 | 30 to 44 | 0 to 29 | 45 to 59 | 95 to 100 | 0 to 29 | 45 to 59
9 | COC(=O)c1nc(-c2cc3c(cc2F)OC(F)(F)O3)c(F)cc1Cl [F173, Methyl 3-chloro-5-fluoro-6-(2,2,6-trifluorobenzo[d] [1,3]dioxol-5-yl)picolinate] | 60 to 74 | 95 to 100 | 75 to 84 | 95 to 100 | 85 to 94 | 75 to 84 | 95 to 100 | 85 to 94 | 95 to 100 | 60 to 74 | 0 to 29 | 75 to 84 | 95 to 100 | 0 to 29 | 60 to 74
10 | COC(=O)c1nc(-c2cc3c(cc2F)OC(F)(F)O3)c(Cl)cc1Cl [F174, Methyl 3,5-dichloro-6-(2,2,6-trifluorobenzo[d] [1,3]dioxol-5-yl)picolinate] | 0 to 29 | 85 to 94 | 0 to 29 | 85 to 94 | 0 to 29 | 0 to 29 | 85 to 94 | 0 to 29 | 95 to 100 | 0 to 29 | 0 to 29 | 30 to 44 | 85 to 94 | 0 to 29 | 0 to 29
